{
  "source": "paper PMC7764243",
  "about": "“Alterins Produced by Oyster-Associated Pseudoalteromonas Are Antibacterial Cyclolipopeptides with LPS-Binding Activity” (Marine Drugs, 2020)",
  "key": {"A. caviae CIP 7616": {"test_system": "A. caviae CIP 7616", "assay_type": "cell-based, Aeromonas caviae", "settings": "broth microdilution, 0.1 to 100 µM, 1.10^6 UFC/mL, 48 h, read by unaided eye", "protocol": "(§1) Antibacterial activity was assayed against a panel of micro-organisms including human and aquaculture pathogenic bacterial species. MICs were performed and defined according to internationally recognized standards (CLSI [21]). Polymyxin B (PMB), an antibiotic CLP produced by Paenibacillus polymyxa, was used as positive control. The major produced alterins, i.e., alt_952, alt_954, alt_970 and alt_980 were assayed against the whole panel of target cells while the minor ones were only tested against a few bacterial strains (Table 2).\n(§2) The bacterial strains Aeromonas caviae CIP 7616, Aeromonas hydrophila CIP 7614, Escherichia coli ML35, Escherichia coli SBS 363, Salmonella enterica CIP 8297 and Yersinia ruckeri ATCC 29473 were grown in Tryptic Soy Broth. The marine bacterial strains Vibrio crassostreaeJ2–9, Vibrio tasmaniensisLGP32, Vibrio tapetis CECT 4600 were grown in Marine Broth. All of them were cultivated at optimal temperature according to ATCC and CIP specifications. The strain Vibrio parahaemolyticus13-028A/3 was grown at 28 °C in Tryptic Soy Broth supplemented in NaCl (20 g.L^−1) according to [47]. The strains Pseudoalteromonas sp. hCg-6 and hCg-42 were cultured using a synthetic medium containing: 17.11 g sucrose, 30 g sea salts (Sigma-S9883), 7.6 g K2HPO4, 3 g KH2PO4 and 20 mL MEM 50X (Dulbecco) per liter. The cultures were grown at 18 °C for 72 h with shaking (100 rpm).\n(§3) MICs were determined using broth microdilution method according to [21]. To resume, antibacterial compounds ranging from 0.1 to 100 µM were assayed against the target bacteria in mid-logarithmic phase culture (1.10^6 UFC.mL^−1) in adapted culture medium according to the strain. MICs were examined by unaided eye after a 48h-incubation time at the optimal temperature growth. The lipopeptide PMB (Sigma-P4932) was used as antibiotic control."}, "E. coli ML35": {"test_system": "E. coli ML35", "assay_type": "cell-based, Escherichia coli", "settings": "E. coli ML35 (long-chain LPS); broth microdilution, 0.1 to 100 µM, 1.10^6 UFC/mL, 48 h, read by unaided eye", "protocol": "as §1, §2, §3"}, "E. coli SBS363": {"test_system": "E. coli SBS363", "assay_type": "cell-based, Escherichia coli", "settings": "E. coli SBS363 (short-chain LPS); broth microdilution, 0.1 to 100 µM, 1.10^6 UFC/mL, 48 h, read by unaided eye", "protocol": "as §1, §2, §3"}, "P. aeruginosa ATCC 27853": {"test_system": "P. aeruginosa ATCC 27853", "assay_type": "cell-based, Pseudomonas aeruginosa", "settings": "P. aeruginosa ATCC 27853; broth microdilution, 0.1 to 100 µM, 1.10^6 UFC/mL, 48 h, read by unaided eye", "protocol": "as §1, §3"}, "Pseudoalteromonas hCg-42": {"test_system": "Pseudoalteromonas hCg-42", "assay_type": "cell-based, Pseudoalteromonas sp.", "settings": "Pseudoalteromonas hCg-42 (producing strain); broth microdilution, 0.1 to 100 µM, 1.10^6 UFC/mL, 48 h, read by unaided eye", "protocol": "as §1, §2, §3"}, "Pseudoalteromonas hCg-6": {"test_system": "Pseudoalteromonas hCg-6", "assay_type": "cell-based, Pseudoalteromonas sp.", "settings": "Pseudoalteromonas hCg-6 (producing strain); broth microdilution, 0.1 to 100 µM, 1.10^6 UFC/mL, 48 h, read by unaided eye", "protocol": "as §1, §2, §3"}, "S. enterica CIP 8297": {"test_system": "S. enterica CIP 8297", "assay_type": "cell-based, Salmonella enterica", "settings": "broth microdilution, 0.1 to 100 µM, 1.10^6 UFC/mL, 48 h, read by unaided eye", "protocol": "as §1, §2, §3"}, "[1]": {"test_system": "V. parahaemolyticus 13-028A/3", "assay_type": "cell-based, Vibrio parahaemolyticus", "settings": "broth microdilution, 0.1 to 100 µM, 1.10^6 UFC/mL, 48 h, read by unaided eye", "protocol": "as §1, §2, §3"}, "V. tapetis CECT 4600T": {"test_system": "V. tapetis CECT 4600T", "assay_type": "cell-based, Vibrio tapetis", "settings": "V. tapetis CECT 4600T; broth microdilution, 0.1 to 100 µM, 1.10^6 UFC/mL, 48 h, read by unaided eye", "protocol": "as §1, §2, §3"}, "V. tasmaniensis LGP 32": {"test_system": "V. tasmaniensis LGP 32", "assay_type": "cell-based, Vibrio tasmaniensis", "settings": "V. tasmaniensis LGP 32; broth microdilution, 0.1 to 100 µM, 1.10^6 UFC/mL, 48 h, read by unaided eye", "protocol": "as §1, §2, §3"}, "Y. ruckeri ATCC 29473": {"test_system": "Y. ruckeri ATCC 29473", "assay_type": "cell-based, Yersinia ruckeri", "settings": "Y. ruckeri ATCC 29473; broth microdilution, 0.1 to 100 µM, 1.10^6 UFC/mL, 48 h, read by unaided eye", "protocol": "as §1, §2, §3"}, "V. tasmaniensis LGP32": {"test_system": "V. tasmaniensis LGP32", "experiment": "Viability (cultivability, CFU count) in seawater", "assay_type": "cell-based, Vibrio tasmaniensis", "settings": "20 µM, 4 h incubation in sterile seawater, inoculum 1.10^6 UFC/mL, plated in duplicate", "protocol": "As a first step, we have measured the antimicrobial activity of alt_952, alt_954, alt_970 and alt_980 against V. tasmaniensis LGP32 in seawater after a 4 hour-long incubation. […] The effects on membrane were also investigated under the same experimental conditions using live/dead bacterial viability kit for flow cytometry (Figure 6). A net cultivability loss of V. tasmaniensis (2-log reduction) was observed when incubated with alt_954 and alt_980 indicative of a bactericidal effect (Figure 7A). In these conditions, V. tasmaniensis was much less affected by alt_970 (1-log reduction) and not by alt_952 (Figure 7A).\n[…] After a 4 h-long incubation, viable bacteria were counted. Diluted samples (50 µL) in sterile seawater were spread in duplicate on appropriate medium. Cultivable bacterial concentration (CFU mL^−1) was determined after overnight incubation at optimal growth temperature."}, "[2]": {"experiment": "LPS binding, surface plasmon resonance (Biacore)", "parameters": "species or system Escherichia coli", "settings": "CLPs immobilized (500–600 RU) on CM5 chip, titrated with LPS, 25 °C, 10 mM Hepes pH 7.4, 150 mM NaCl, 3 mM EDTA", "text": "To gain insights into LPS-alterin interactions, we used an endotoxin detection assay, the QCL-1000^TM Endpoint chromogenic Limulus Amoebocyte Lysate (LAL) assay (Lonza). We compared alt_954, alt_970 and alt_980 for their ability to bind LPS from E. coli O111:B4. All alterins bound to LPS in a dose-dependent manner, as indicated by the reduction of biologically active LPS with increasing alterins concentrations (Figure 4A). […] To examine alterin LPS-binding properties in more detail, we performed a surface plasmon resonance (SPR) assay using the Biacore technology (GE Healthcare). The SPR binding measurements were performed using the alt_954 and alt_970. PMB was used as a positive control. The CLPs were immobilized to a CM5 sensor chip surface and titrated with LPS. […] The dose-dependent effect observed (Figure 4B) highlights the LPS-binding properties of the alterins. Both LPS-binding assays, i.e., LAL and SPR, are fully agreeing for alt_954. Moreover, the LPS-binding properties of alterins followed the same general pattern as that of antibacterial activity.\nSurface plasmon resonance experiments were carried out at 25 °C using a BIACORE 3000 apparatus (GE Healthcare, Uppsala, Sweden). […] The binding level in RU was measured at the end of the binding after normalization to the same CLP coated level."}},
  "note": "*1 amine or outer side, *2 acyl side, *3 side chain or, on linkers, in order; H or OH if unused. Where a SMILES comes first, the peptide text is derived from it. Bridges are numbered along the chain shown (N, C = ends). [ ]: non-standard residue; d: D form. The star is where a group is joined. ξ: configuration not given here. Dab(3ξ-OH) = O=C([C@@H](N[*:1])C(O)CN[*:3])[*:2]; Decanoyl(3ξ-OH) = CCCCCCCC(O)CC(=O)*; X1 = C/C=C(/N[*:1])C(=O)[*:2]; Dab = NCC[C@H](N)C(=O)O",
  "data": [
    {"smiles": "C/C=C1/NC(=O)[C@@H](NC(=O)CC(O)CCCCCCC)C(O)CNC(=O)[C@H](C(O)CN)NC(=O)[C@H](C(O)CN)NC(=O)[C@H](CCCNC(=N)N)NC(=O)[C@H](CC(C)C)NC(=O)[C@H](CCN)NC1=O", "note": "(stereo partly shown) [alt_970] ({Decanoyl(3ξ-OH)}-[Dab(3ξ-OH)][X1][Dab]LR[Dab(3ξ-OH)][Dab(3ξ-OH)]; lactam 1-C)", "values": [
      {"measurement": "MIC", "setting": "A. caviae CIP 7616", "result": 17.6, "unit": "µM"},
      {"measurement": "MIC", "setting": "E. coli ML35", "result": 35, "unit": "µM"},
      {"measurement": "MIC", "setting": "E. coli SBS363", "result": 0.1, "unit": "µM"},
      {"measurement": "MIC", "setting": "P. aeruginosa ATCC 27853", "result": 35.2, "unit": "µM"},
      {"measurement": "MIC", "setting": "Pseudoalteromonas hCg-42", "result": ">100", "unit": "µM"},
      {"measurement": "MIC", "setting": "Pseudoalteromonas hCg-6", "result": ">100", "unit": "µM"},
      {"measurement": "MIC", "setting": "S. enterica CIP 8297", "result": 1.1, "unit": "µM"},
      {"measurement": "MIC", "setting": "[1]", "result": 6.25, "unit": "µM"},
      {"measurement": "MIC", "setting": "V. tapetis CECT 4600T", "result": ">100", "unit": "µM"},
      {"measurement": "MIC", "setting": "V. tasmaniensis LGP 32", "result": 8.8, "unit": "µM"},
      {"measurement": "MIC", "setting": "Y. ruckeri ATCC 29473", "result": 1.1, "unit": "µM"},
      {"measurement": "cultivability loss of V. tasmaniensis (log reduction of CFU)", "setting": "V. tasmaniensis LGP32", "result": 1, "unit": "log"},
      {"measurement": "LPS binding response (SPR, RU)", "setting": "[2]", "result": "the response was halved"}
    ]}
  ]
}
